# Values quoted from earlier work, collected in US10485754B2, “Method for the production of a sodium ion-free effervescent tablet, powder or granulate having a high X ion content, where X can be a variety of substances” (BIOFAR LABORATOIRES, priority 2014, dated 2019).
compound,measurement,setting,value
O=C([O-])[O-].[Ca+2] [calcium carbonate],calcium carbonate that can be dissolved in one liter of water,water,0.014 grams in one liter of water
same,calcium carbonate that can be dissolved in one liter of water with CO2,with CO2 soda in the water,up to 16.6 grams in one liter of water
